Measurements published in patent US20180044738A1, “METHOD OF DIAGNOSING BREAST CANCER, MONITORING TREATMENT OF BREAST CANCER, AND TREATING BREAST CANCER” (University Of Cincinnati, priority 2016, published 2018).
Like-named read-outs stand apart in the source and are kept apart here.

Test system: Xenograft tumors
Text: Xenograft tumors derived from luciferase-expressing MDA-MB-231 and SUM159 cells will be implanted orthotopically in female nude mice. […] Initial dose of the aptamers will follow the previous animal studies (weekly intra-tumoral injection; 2000 pmol each time delivered in 10 sub-injections). The optimal dose will be determined empirically based on the effect on tumor volumes. The lapatinib plus imatinib group will be used to compare the tumor suppression efficacy of drug treatment with the aptamers. […] Tumor volume will be measured weekly with a caliper, and also by an IVIS imaging system (Xenogen) which can reveal potential metastatic sites. Apoptosis will be assessed by TUNEL assay of the tumor tissues; proliferation will be assayed by in vivo BrdU incorporation analysis. Primary tumor with adjacent normal tissues will be examined by hematoxylin/eosin (H&E) staining. Tumor invasion will be assessed based on the extent of infiltration into surrounding tissues, the margins from surrounding tissues, and desomoplastic stromal reaction by smooth muscle actin staining. Human origin of the invasive cells will be confirmed by staining for human cytokeratin.

SMILES | tumor growth (mouse, in vivo, po, 100 mg/kg) | tumor growth (oral gavage, 100 mg/kg of each drug, in a month, preliminary results, data not shown)
Cc1ccc(NC(=O)c2ccc(CN3CCN(C)CC3)cc2)cc1Nc1nccc(-c2cccnc2)n1 [imatinib] | not either drug alone | 
CS(=O)(=O)CCNCc1ccc(-c2ccc3ncnc(Nc4ccc(OCc5cccc(F)c5)c(Cl)c4)c3c2)o1 [lapatinib] |  | not either drug alone
